We go through 18 molecules from US9586959B2, “Substituted tricyclic heterocycles as histamine 4 receptor inhibitors” (C&C RESEARCH LABORATORIES, priority 2011, dated 2017).

≈ marks a conversion by molar mass, not a printed value.

Data set [1] has as its target human histamine 4 receptor (hH4R) (Homo sapiens (Human), UniProt Q9H3N8). In words: Binding affinity of human histamine 4 receptor (hH4R), [3H] labeled histamine displacement. As to conditions: hH4R-overexpressed cell membrane, [3H] histamine. The protocol:
20 μL of the prepared compound solution was transferred to each well of a 96-well plate, and then 20 μL of 100 μM histamine diluted with analysis buffer solution and 1% DMSO were transferred to each well to calculate non-specific binding and total binding degree. 25 μg of human histamine 4 receptor-overexpressed cell membrane (PerkinElmer) was diluted into 160 μL of analysis buffer solution and that was transferred to each well. [^3H] labeled histamine (PerkinElmer) was diluted into 1 μM concentration, 20 μL was allocated in each well, and then it was kept in a 27° C. incubator for 30 minutes. After the reaction, 200 μL of the mixture was transferred to a glass fiber plate in which 0.5% polyethylene amine was presoaked, and then non-binding [^3H] labeled histamine was removed in vacuum. After 4 times washing with 200 μL of washing buffer solution (50 mM tris-HCl, pH 7.4), the plate was dried in a 37° C. oven for 18 hours. 100 μL of betascint cocktail solution was added to each well, and after 1 hour CPM (count per minute) value of [^3H] labeled histamine was measured by using Wallac beta-counter TriLux.

Data set [2] concerns the target human histamine 3 receptor (hH3R) (Homo sapiens (Human), UniProt Q9Y5N1). The experiment in a line: Binding affinity of human histamine 3 receptor (hH3R), [3H] labeled N-α-methylhistamine displacement. As to conditions: hH3R-overexpressed cell membrane, [3H] N-α-methylhistamine. The protocol: 10 μL of the prepared compound solution was allocated in each well of a 96-well plate, and then 10 μL of 200 μM (R)(−)-α-methylhistamine (RaMH) diluted with analysis buffer and 1% of DMSO were transferred to each well to calculate non-specific binding and total binding degree. 15 μg of human histamine 3 receptor-overexpressed cell membrane (PerkinElmer) was diluted with 180 μL of analysis buffer solution (50 mM tris-HCl pH 7.4, 5 mM MgCl2), and that was transferred to each well. [^3H] labeled Na-methylhistamine (PerkinElmer) was diluted into […], 10 μL of that was added to each well, and then it was kept in a 27° C. incubator for 30 minutes. After the reaction, 200 μL of the mixture was transferred to a glass fiber plate in which 0.5% polyethylene amine was presoaked, and then non-binding [^3H] labeled Na-methylhistamine was removed in vacuum. After 5 times washing with 200 μL of washing buffer solution (50 mM tris-HCl, pH 7.4), the plate was dried in a 37° C. oven for 18 hours. 100 μL of betascint cocktail solution was added to each well, and after 1 hour CPM of [^3H] labeled N-α-methylhistamine was measured by using Wallac beta-counter TriLux. The binding affinity (IC50) of the human histamine 3 receptor for the present invention was analyzed by an Excel program, and the results of analysis are shown in Table 2.

Data set [3] can be described thus: Metabolic stability in mouse microsome. As to conditions: mouse microsome 1 mg/mL, 5 μM compound, 1 mM NADPH.
Data set [4] can be described thus: Metabolic stability in human microsome. As to conditions: human microsome 1 mg/mL, 5 μM compound, 1 mM NADPH.
A short description of data set [5]: Solubility in artificial gastrointestinal tract solution. It is filed as physicochemical. As to conditions: artificial gastrointestinal tract solution, thermodynamic from solid; for solubility at 1 h: fassgf or other biorelevant, first solution pH 1.2, 2 mg/mL sample, 37° C. 1 hour; for solubility at 2 h: fassif, second solution pH 6.5, 2 mg/mL sample, 37° C. 2 hours. As for the experimental part: 2.0 g of sodium chloride was added in 7.0 mL of 37% of hydrochloric acid and water to make the total volume of 1 L. The pH was adjusted to exactly 1.2 with 1N sodium hydroxide or 1N hydrochloric acid. A small amount (20 mL) of this solution was taken and added in 25 μL of triton X-100 to make the total volume of 25 mL.
0.348 g sodium hydroxide, 3.438 g NaH2PO4, 6.186 g sodium chloride and water were added to make the total volume of 1 L. The pH was adjusted to exactly 6.5 with 1N sodium hydroxide or 1N hydrochloric acid. A small amount (20 mL) of this solution was taken and 41.25 mg of sodium taurocholate hydrate and 25 μL of 750 mM lecithin dissolved in ethanol was added to make the total volume of 25 mL.
The heated test sample solutions were filtered to remove undissolved compounds therein. Finally, 100 μL of the completely compound-dissolved solution was sampled and 100 μL of CH3CN was added thereto to make the test sample solution. For each analysis of the test sample solution, the solubility was measured by using liquid chromatography.

Chain of human histamine 4 receptor (hH4R) (Q9H3N8 whole entry): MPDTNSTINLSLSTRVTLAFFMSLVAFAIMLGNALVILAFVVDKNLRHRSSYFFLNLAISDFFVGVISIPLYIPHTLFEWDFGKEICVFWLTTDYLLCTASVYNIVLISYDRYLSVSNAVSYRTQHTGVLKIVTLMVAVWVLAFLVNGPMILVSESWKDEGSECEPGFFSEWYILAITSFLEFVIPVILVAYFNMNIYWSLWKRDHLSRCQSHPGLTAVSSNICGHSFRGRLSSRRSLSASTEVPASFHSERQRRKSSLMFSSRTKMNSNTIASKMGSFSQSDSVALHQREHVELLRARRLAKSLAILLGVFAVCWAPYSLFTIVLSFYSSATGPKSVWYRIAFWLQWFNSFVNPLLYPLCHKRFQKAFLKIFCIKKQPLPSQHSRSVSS
Chain of human histamine 3 receptor (hH3R) (Q9Y5N1 whole entry): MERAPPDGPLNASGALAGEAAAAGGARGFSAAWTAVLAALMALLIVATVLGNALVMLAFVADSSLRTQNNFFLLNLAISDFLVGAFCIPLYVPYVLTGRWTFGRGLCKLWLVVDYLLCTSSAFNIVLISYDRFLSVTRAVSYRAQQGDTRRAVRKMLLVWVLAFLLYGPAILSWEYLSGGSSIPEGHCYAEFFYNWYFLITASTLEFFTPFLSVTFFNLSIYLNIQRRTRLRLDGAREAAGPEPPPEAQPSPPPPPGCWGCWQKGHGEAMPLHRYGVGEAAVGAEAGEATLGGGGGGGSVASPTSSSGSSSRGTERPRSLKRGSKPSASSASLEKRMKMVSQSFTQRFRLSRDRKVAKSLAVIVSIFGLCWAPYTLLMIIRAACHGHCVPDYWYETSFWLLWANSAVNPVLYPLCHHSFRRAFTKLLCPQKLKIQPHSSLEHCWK

On to `CN1CCN(c2nc3ncc(C#N)cc3n3cnnc23)CC1` [Compound 13, 4-(4-Methylpiperazin-1-yl)pyrido[2,3-e][1,2,4]triazolo[4,3-a]pyrazin-8-carbonitrile], for which the values for the IC50 in data set [1] and in data set [2] were 238 nM and more than 100 µM, respectively. Moreover, the “Metabolic stability (CLh. int), Mouse” value in data set [3] is 3.07 mL/min/mg. Further, the “Metabolic stability (CLh. int), Human” value in data set [4] turned out to be 2.71 mL/min/mg.
Consider `CN1CCN(c2nc3nc(Cl)c(Cl)cc3n3cnnc23)CC1` [Compound 17, 7,8-Dichloro-4-(4-methylpiperazin-1-yl)pyrido[2,3-e][1,2,4]triazolo[4,3-a]pyrazine], for which the values for the IC50 in data set [1] and in data set [2] were 177 nM and more than 100 µM, respectively. In addition, the “Metabolic stability (CLh. int), Mouse” value in data set [3] is recorded as 17.13 mL/min/mg. Further, the “Metabolic stability (CLh. int), Human” value in data set [4] amounted to 5.88 mL/min/mg.
With `CN1CCN(c2nc3nc(C#N)c(Cl)cc3n3cnnc23)CC1` [Compound 21, 8-Chloro-4-(4-methylpiperazin-1-yl)pyrido[2,3-e][1,2,4]triazolo[4,3-a]pyrazin-7-carbonitrile], the IC50 in data set [1] worked out at 270 nM. In addition, the “Metabolic stability (CLh. int), Mouse” value in data set [3] was 7.13 mL/min/mg. In addition, the “Metabolic stability (CLh. int), Human” value in data set [4] was 4.87 mL/min/mg.
In the case of `N#Cc1cnc2nc(N3CCNCC3)c3nncn3c2c1` [Compound 26, 4-(piperazin-1-yl)pyrido[2,3-e][1,2,4]triazolo[4,3-a]pyrazin-8-carbonitrile], the figures for the 50% inhibitory concentration (IC50) in data set [1] and in data set [2] were 220 nM and more than 100 µM, respectively. Further, the “Metabolic stability (CLh. int), Mouse” value in data set [3] is 6.74 mL/min/mg. Further, in data set [4], the “Metabolic stability (CLh. int), Human” value was determined as 2.45 mL/min/mg.
For `CNC1CN(c2nc3nc(Cl)c(Cl)cc3n3cnnc23)C1` [Compound 27, 1-(7,8-Dichloropyrido[2,3-e][1,2,4]triazolo[4,3-a]pyrazin-4-yl)-N-methylazetidin-3-amine], in data set [2], the IC50 is more than 100 µM. Further, the “Metabolic stability (CLh. int), Mouse” value in data set [3] is recorded as 7.27 mL/min/mg. In data set [4], the “Metabolic stability (CLh. int), Human” value was 1.24 mL/min/mg.
On the same counts, the results for `CN1CCN(c2nc3ncc(Cl)cc3c3nc(C4CC4)nn23)CC1` [Compound 38, 9-Chloro-2-cyclopropyl-5-(4-methylpiperazin-1-yl)pyrido[3,2-e][1,2,4]triazolo[1,5-c]pyrimidine] are more than 100 µM, 14.90 mL/min/mg and 7.18 mL/min/mg.
On to `Clc1cnc2nc(N3CCNCC3)n3nc(C4CC4)nc3c2c1` [Compound 39, 9-Chloro-2-cyclopropyl-5-(piperazin-1-yl)pyrido[3,2-e][1,2,4]triazolo[1,5-c]pyrimidine], for which the values for the IC50 in data set [1] and in data set [2] were 130 nM and more than 100 µM, respectively. Also, the “Metabolic stability (CLh. int), Mouse” value in data set [3] is recorded as 5.09 mL/min/mg. In addition, the “Metabolic stability (CLh. int), Human” value in data set [4] stood at 2.84 mL/min/mg.
In data set [2], `Cn1cc2c(n1)c(N1CCNCC1)nc1ncc(Cl)cc12` [Compound 45, 8-Chloro-2-methyl-4-(piperazin-1-yl)-2H-pyrazolo[3,4-c][1,8]naphthylidine] registered a 50% inhibitory concentration (IC50) of more than 100 µM. In addition, in data set [3], the “Metabolic stability (CLh. int), Mouse” value was found to be 12.99 mL/min/mg. Also, the “Metabolic stability (CLh. int), Human” value in data set [4] came to 3.26 mL/min/mg.
The molecule `CN1CCN(c2nc3ncc(C(F)(F)F)cc3n3cnnc23)CC1` [Compound 53, 4-(4-Methylpiperazin-1-yl)-8-(trifluoromethyl)pyrido[2,3-e][1,2,4]triazolo[4,3-a]pyrazine] came in with a 50% inhibitory concentration (IC50) in data set [1] of 280 nM. For the same molecule, the “Metabolic stability (CLh. int), Mouse” value in data set [3] is listed as 3.38 mL/min/mg. For the same molecule, the “Metabolic stability (CLh. int), Human” value in data set [4] was determined as 2.34 mL/min/mg.
As to `C#Cc1cnc2nc(N3CC(NC)C3)c3nncn3c2c1` [Compound 54, 1-(8-Ethynylpyrido[2,3-e][1,2,4]triazolo[4,3-a]pyrazin-4-yl)-N-methylazetidin-3-amine], the IC50 in data set [1] is 200 nM; in data set [2] it was more than 100 µM. Besides, in data set [3], the “Metabolic stability (CLh. int), Mouse” value is listed as 0.68 mL/min/mg. Moreover, the “Metabolic stability (CLh. int), Human” value in data set [4] was 1.16 mL/min/mg.
On the same counts, the results for `CNC1CN(c2nc3ncc(OC)cc3n3cnnc23)C1` [Compound 58, 1-(8-Methoxypyrido[2,3-e][1,2,4]triazolo[4,3-a]pyrazin-4-yl)-N-methylazetidin-3-amine] are 210 nM, more than 100 µM, 12.74 mL/min/mg and 2.80 mL/min/mg.
Take `CNC1CN(c2nc3ncc(OC(F)F)cc3n3cnnc23)C1` [Compound 59, 1-(8-(Difluoromethoxy)pyrido[2,3-e][1,2,4]triazolo[4,3-a]pyrazin-4-yl)-N-methylazetidin-3-amine]: the values for the half-inhibitory concentration (IC50) in data set [1] and in data set [2] were 890 nM and more than 100 µM, respectively. In data set [3], the “Metabolic stability (CLh. int), Mouse” value came out at 1.23 mL/min/mg. The “Metabolic stability (CLh. int), Human” value in data set [4] is recorded as 1.32 mL/min/mg.
As for `Brc1cnc2nc(N3CCN4CCCC4C3)c3nncn3c2c1` (stereo not drawn) [Compound 74, 8-Bromo-4-(hexahydropyrrolo[1,2-a]pyrazin-2(1H)-yl)pyrido[2,3-e][1,2,4]triazolo[4,3-a]pyrazine], in data set [1], the IC50 was 60 nM. Further, in data set [5], the solubility at 1 h was found to be 1530 µg/mL (≈ 4.08 mM) and the concentration in solution (solubility at 2 h) was 646 µg/mL (≈ 1.73 mM).
On the same counts, the results for `Ic1cnc2nc(N3CCN4CCCC4C3)c3nncn3c2c1` (stereo not drawn) [Compound 75, 4-(Hexahydropyrrolo[1,2-a]pyrazin-2(1H)-yl)-8-iodopyrido[2,3-e][1,2,4]triazolo[4,3-a]pyrazine] are 64 nM, 2000 µg/mL (≈ 4.76 mM) and 723 µg/mL (≈ 1.72 mM).
`Cc1nc2c(N3CCN(C)CC3)nc3ncc(Cl)cc3n2n1` [Compound 98, 8-Chloro-2-methyl-4-(4-methylpiperazin-1-yl)pyrido[2,3-e][1,2,4]triazolo[1,5-a]pyrazine] registered a half-maximal inhibitory concentration (IC50) in data set [1] of 11 nM. Also, in data set [5], the concentration in solution (solubility at 1 h) was 1700 µg/mL (≈ 5.36 mM) and the solubility at 2 h came to 1090 µg/mL (≈ 3.44 mM).
The molecule `CN(O)C1CN(c2nc3ncc(Br)cc3n3cnnc23)C1` [Compound 102, N-(1-(8-bromopyrido[2,3-e][1,2,4]triazolo[4,3-a]pyrazin-4-yl)azetidin-3-yl)-N-methylhydroxylamine] showed a half-maximal inhibitory concentration (IC50) in data set [2] of more than 100 µM. For the same molecule, the “Metabolic stability (CLh. int), Mouse” value in data set [3] was 6.78 mL/min/mg. Moreover, the “Metabolic stability (CLh. int), Human” value in data set [4] came out at 1.99 mL/min/mg.
On to `CNC1CN(c2nc3ncc(Br)cc3n3cnnc23)C1.O=C(O)C(F)(F)F` [Compound 104, 1-(8-bromopyrido[2,3-e][1,2,4]triazolo[4,3-a]pyrazin-4-yl)-N-methylazetidin-3-amine 2,2,2-trifluoroacetate], for which the half-inhibitory concentration (IC50) in data set [1] (2,2,2-trifluoroacetate) was determined as 30 nM. The molecule also had an IC50 in data set [2] of more than 100 µM. In data set [5], this molecule came in with a solubility at 1 h of 1510 µg/mL and a solubility at 2 h of 1560 µg/mL.
In turn, `CNC1CN(c2nc3ccc(Cl)nc3n3cnnc23)C1` [Compound 116, 1-(2-chloropyrido[3,2-e][1,2,4]triazolo[4,3-a]pyrazin-6-yl)-N-methylazetidin-3-amine] gave an IC50 in data set [1] of 240 nM. Also, in data set [2], the 50% inhibitory concentration (IC50) was more than 100 µM. In data set [5], this molecule showed a solubility at 1 h of 1940 µg/mL (≈ 6.7 mM) and a solubility at 2 h of 960 µg/mL (≈ 3.31 mM).

One may read the IC50 as the concentration that gives 50% inhibition. A higher IC50 goes with a need for much substance. As a reminder, the solubility is the dissolved amount per volume that the medium holds. Low readings indicate little dissolved substance, high ones much dissolved substance.
